Measured values from ChEMBL document CHEMBL3784927, “Serum azathioprine and 6-mercaptopurine levels and immunosuppressive activity after azathioprine in uremic patients” (Int J Immunopharmacol, 1986).

What was measured:
[1] = Cmax in uremic patient (8 patients) at 100 mg, po by gas chromatography-mass spectrometry with multiple detection method; details: human, in vivo
[2] = Primary phase half life in uremic patient (13 patients) at 100 mg, iv by gas chromatography-mass spectrometry with multiple detection method; details: human, in vivo
[3] = Half life in human with good renal function; details: in vivo
[4] = Tmax in uremic patient (15 patients) at 100 mg, iv by gas chromatography-mass spectrometry with multiple detection method; details: human, in vivo
[5] = Terminal phase half life in uremic patient (15 patients) at 100 mg, iv by gas chromatography-mass spectrometry with multiple detection method; details: human, in vivo
[6] = AUC (0 to infinity) in uremic patient (7 patients) at 100 mg, po by gas chromatography-mass spectrometry with multiple detection method; details: human, in vivo
[7] = Clearance in kidney transplant patient; details: human, in vivo
[8] = Cmax in uremic patient (15 patients) at 100 mg, iv by gas chromatography-mass spectrometry with multiple detection method; details: human, in vivo
[9] = Volume of distribution in uremic patient (15 patients) at 100 mg, iv by gas chromatography-mass spectrometry with multiple detection method; details: human, in vivo
[10] = Tmax in uremic patient (8 patients) at 100 mg, po by gas chromatography-mass spectrometry with multiple detection method; details: human, in vivo
[11] = AUC (0 to infinity) in uremic patient (15 patients) at 100 mg, iv by gas chromatography-mass spectrometry with multiple detection method; details: human, in vivo
[12] = Total clearance in uremic patient (15 patients) at 100 mg, iv by gas chromatography-mass spectrometry with multiple detection method; details: human, in vivo

Cmax [1]: 180 nM
half-life [2]: 6.05 min
half-life [3]: 10 min
Tmax [4]: 5 min
half-life [5]: 49.5 min
AUC(0-inf) [6]: 0.164 µM·h
clearance [7]: 57 mL/min/kg
Cmax [8]: 3140 nM
Vd [9]: 438 L
Tmax [10]: 15 min
AUC(0-inf) [11]: 1.04 µM·h
clearance [12]: 6920 mL/min
Structure (SMILES): Cn1cnc([N+](=O)[O-])c1Sc1ncnc2nc[nH]c12 [AZATHIOPRINE]
